From patent US20150225404A1, “PYRIDINE DERIVATIVE AND MEDICINE” (NIPPON SHINYAKU CO., LTD., priority 2012, published 2015)
pIC50: −log10 of the molar value. Counter-ions that a name gives are not always drawn.

These molecules were tested against T1, human mGluR5 (Homo sapiens, UniProt P41594) (assay: Experiment for receptor function of mGluR5 (Ca2+-dependent fluorescence, FLIPR, CHO-K1 cells stably expressing human mGluR5)). Conditions: L-glutamic acid 10 μM, Fluo-4 fluorescence.
T1 construct: expressed in transfected cells
Assay type: cell-based
Experimental: Stable expression cells in which the human mGluR5 gene had been introduced into a Chinese hamster ovary cell (CHO-K1) were used for evaluation. The cells were suspended in a growth medium (MEM-α (D8042, available from Sigma) containing 10% inactivated FBS (Cat. No. 171012, available from CCB) and 2 mM glutamax (Cat. No. 35050, available from GIBCO)) and seeded on a black clear-bottom 96-well plate at 100,000 cells per well. One day after seeding, the medium was replaced by a medium (Hanks' balanced salt solution (HBSS buffer solution) (20 mM HEPES, 2.5 mM probencide (165-15472, available from Wako Pure Chemical Industries, Ltd.), and 10×HBSS (14065-056, available from Gibco) diluted 10 times, pH 7.4)) containing a calcium-sensitive dye Fluo-4 AM at a final concentration of […] (F312, available from Dojindo Laboratories) and Pluronic F-127 at a final concentration of 0.0145% (P-2443, available from Sigma), followed by incubation at 37° C. for one hour, thereby loading Fluo-4 AM into the cells.
Subsequently, the cells were washed twice with an HBSS buffer solution, to which was subsequently added the same buffer solution. Twenty minutes thereafter, the plate was transferred into a fluorescence screening system (FLIPR TETRA, available from Molecular Devices, LLC) and measured for a Ca^2+-dependent fluorescence change in the cells.
First of all, a fluorescence baseline was measured, and thereafter, fluorescence measurement was performed for 2 minutes while adding a test substance, an excessive amount of 6-methyl-2-(phenylethynyl)pyridine (hereinafter referred to as “MPEP”) (final concentration: 10 μM), or the medium. Thereafter, fluorescence measurement was carried out for one minute while adding L-glutamic acid (final concentration: 10 μM).
While taking a fluorescence intensity caused by L-glutamic acid as 100% and a fluorescence intensity caused by L-glutamic acid in the presence of MPEP as 0%, respectively, function inhibitory activity against human mGluR5 was evaluated from the fluorescence intensity caused by L-glutamic acid in the presence of the test substance at each concentration, and an IC50 value was estimated according to a logistic equation (SAS System).

T1 sequence (P41594 21-1212): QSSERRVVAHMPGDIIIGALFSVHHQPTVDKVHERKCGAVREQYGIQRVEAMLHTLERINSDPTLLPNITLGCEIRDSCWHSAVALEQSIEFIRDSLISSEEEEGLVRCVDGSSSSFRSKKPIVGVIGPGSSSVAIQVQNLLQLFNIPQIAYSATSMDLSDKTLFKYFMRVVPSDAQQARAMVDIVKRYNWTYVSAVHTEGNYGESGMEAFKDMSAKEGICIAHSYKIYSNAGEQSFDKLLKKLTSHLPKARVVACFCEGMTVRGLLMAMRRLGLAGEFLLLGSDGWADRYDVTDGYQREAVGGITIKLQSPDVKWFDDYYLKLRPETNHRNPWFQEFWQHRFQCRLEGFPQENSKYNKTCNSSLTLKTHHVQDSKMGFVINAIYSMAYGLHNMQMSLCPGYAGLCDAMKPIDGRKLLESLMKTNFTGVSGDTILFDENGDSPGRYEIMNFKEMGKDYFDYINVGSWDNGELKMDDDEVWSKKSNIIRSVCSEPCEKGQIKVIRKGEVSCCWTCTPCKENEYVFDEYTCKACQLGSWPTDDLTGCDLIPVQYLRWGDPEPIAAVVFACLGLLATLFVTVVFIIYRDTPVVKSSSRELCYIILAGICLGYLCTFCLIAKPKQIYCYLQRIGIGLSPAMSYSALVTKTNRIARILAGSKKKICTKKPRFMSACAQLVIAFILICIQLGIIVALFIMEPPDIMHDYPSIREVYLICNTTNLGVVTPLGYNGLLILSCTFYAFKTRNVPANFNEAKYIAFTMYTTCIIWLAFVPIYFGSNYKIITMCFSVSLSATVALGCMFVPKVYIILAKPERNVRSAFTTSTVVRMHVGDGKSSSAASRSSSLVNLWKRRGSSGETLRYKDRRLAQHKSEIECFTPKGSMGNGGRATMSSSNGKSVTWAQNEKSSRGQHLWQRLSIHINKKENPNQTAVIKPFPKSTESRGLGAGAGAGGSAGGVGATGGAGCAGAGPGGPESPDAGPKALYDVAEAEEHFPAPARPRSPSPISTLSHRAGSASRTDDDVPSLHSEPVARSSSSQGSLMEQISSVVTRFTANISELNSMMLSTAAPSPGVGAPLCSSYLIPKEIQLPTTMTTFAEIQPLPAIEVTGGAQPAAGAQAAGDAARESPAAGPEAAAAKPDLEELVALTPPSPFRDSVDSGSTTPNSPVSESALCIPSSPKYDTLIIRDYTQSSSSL

SMILES	pIC50
c1cncc(-c2cc(OCc3nccs3)nc3c2CCCC3)c1 [Example 94, 4-(Pyridin-3-yl)-2-(1,3-thiazol-2-ylmethoxy)-5,6,7,8-tetrahydroquinoline hydrochloride]	7.12
Cc1nc(COc2cc(-c3cccnc3)c3c(n2)CCCC3)cs1 [Example 96, 2-[(2-Methyl-1,3-thiazol-4-yl)methoxy]-4-(pyridin-3-yl)-5,6,7,8-tetrahydroquinoline]	7.25
Fc1ccc(-c2cc(OCc3ccccn3)nc3c2CCCC3)cn1 [Example 101, 4-(6-Fluoropyridin-3-yl)-2-(pyridin-2-ylmethoxy)-5,6,7,8-tetrahydroquinoline dihydrochloride]	7.63
CN(C)C(=O)c1cncc(-c2cc(OCc3ccccn3)nc3c2CCCC3)c1 [Example 120, N,N-Dimethyl-5-[2-(pyridin-2-ylmethoxy)-5,6,7,8-tetrahydroquinolin-4-yl]pyridine-3-carboxamide hydrochloride]	6.69
CNc1cncc(-c2cc(OCc3ccccn3)nc3c2CCCC3)c1 [Example 125, N-Methyl-5-[2-(pyridin-2-ylmethoxy)-5,6,7,8-tetrahydroquinolin-4-yl]pyridin-3-amine]	7.34
Fc1ccc(COc2cc(-c3cccnc3F)c3c(n2)CCCC3)nc1 [Example 138, 4-(2-Fluoropyridin-3-yl)-2-[(5-fluoropyridin-2-yl)methoxy]-5,6,7,8-tetrahydroquinoline hydrochloride]	7.02
Fc1cccc(COc2cc(-c3cncnc3)c3c(n2)CCCC3)n1 [Example 144, 2-[(6-Fluoropyridin-2-yl)methoxy]-4-(pyrimidin-5-yl)-5,6,7,8-tetrahydroquinoline]	7.71
N#Cc1ccnc(COc2cc(-c3cncnc3)c3c(n2)CCCC3)c1 [Example 151, 2-({[4-(Pyrimidin-5-yl)-5,6,7,8-tetrahydroquinolin-2-yl]oxy}methyl)pyridine-4-carbonitrile]	6.36
Cc1cccnc1COc1cc(-c2cncnc2)c2c(n1)CCCC2 [Example 153, 2-[(3-Methylpyridin-2-yl)methoxy]-4-(pyrimidin-5-yl)-5,6,7,8-tetrahydroquinoline]	6.50
Nc1cccc(COc2cc(-c3cncnc3)c3c(n2)CCCC3)n1 [Example 157, 6-({[4-(Pyrimidin-5-yl)-5,6,7,8-tetrahydroquinolin-2-yl]oxy}methyl)pyridin-2-amine]	6.48
CNc1cccc(COc2cc(-c3cncnc3)c3c(n2)CCCC3)n1 [Example 158, N-Methyl-6-({[4-(pyrimidin-5-yl)-5,6,7,8-tetrahydroquinolin-2-yl]oxy}methyl)pyridin-2-amine]	6.60
C=Cc1cccc(COc2cc(-c3cncnc3)c3c(n2)CCCC3)n1 [Example 161, 2-[(6-Ethenylpyridin-2-yl)methoxy]-4-(pyrimidin-5-yl)-5,6,7,8-tetrahydroquinoline]	6.44
Fc1ncc(-c2cc(OCc3ccccn3)nc3c2CCCC3)cn1 [Example 167, 4-(2-Fluoropyrimidin-5-yl)-2-(pyridin-2-ylmethoxy)-5,6,7,8-tetrahydroquinoline hydrochloride]	7.69
Cc1ncc(-c2cc(OCc3ccccn3)nc3c2CCCC3)cn1 [Example 168, 4-(2-Methylpyrimidin-5-yl)-2-(pyridin-2-ylmethoxy)-5,6,7,8-tetrahydroquinoline]	6.82
Clc1ncncc1-c1cc(OCc2ccccn2)nc2c1CCCC2 [Example 176, 4-(4-Chloropyrimidin-5-yl)-2-(pyridin-2-ylmethoxy)-5,6,7,8-tetrahydroquinoline hydrochloride]	7.15
Cc1ncc(-c2cc(OCc3ccc(F)cn3)nc3c2CCCC3)cn1 [Example 186, 2-[(5-Fluoropyridin-2-yl)methoxy]-4-(2-methylpyrimidin-5-yl)-5,6,7,8-tetrahydroquinoline]	7.59

Second part, the molecule after the results:

pIC50	SMILES
7.38	Cc1csc(COc2cc(-c3cccnc3)c3c(n2)CCCC3)n1 [Example 95, 2-[(4-Methyl-1,3-thiazol-2-yl)methoxy]-4-(pyridin-3-yl)-5,6,7,8-tetrahydroquinoline]
7.29	COc1cncc(-c2cc(OCc3ccccn3)nc3c2CCCC3)c1 [Example 102, 4-(5-Methoxypyridin-3-yl)-2-(pyridin-2-ylmethoxy)-5,6,7,8-tetrahydroquinoline hydrochloride]
7.29	N#Cc1ccc(-c2cc(OCc3ccccn3)nc3c2CCCC3)cn1 [Example 104, 5-[2-(Pyridin-2-ylmethoxy)-5,6,7,8-tetrahydroquinolin-4-yl]pyridine-2-carbonitrile hydrochloride]
7.09	Fc1cncc(-c2cc(OCc3ccccn3)nc3c2CCCC3)c1 [Example 107, 4-(5-Fluoropyridin-3-yl)-2-(pyridin-2-ylmethoxy)-5,6,7,8-tetrahydroquinoline hydrochloride]
7.16	N#Cc1cncc(-c2cc(OCc3ccccn3)nc3c2CCCC3)c1 [Example 113, 5-[2-(Pyridin-2-ylmethoxy)-5,6,7,8-tetrahydroquinolin-4-yl]pyridine-3-carbonitrile hydrochloride]
7.01	CC(=O)c1cncc(-c2cc(OCc3ccccn3)nc3c2CCCC3)c1 [Example 115, 1-{5-[2-(Pyridin-2-ylmethoxy)-5,6,7,8-tetrahydroquinolin-4-yl]pyridin-3-yl}ethanone dihydrochloride]
6.88	COC(=O)c1cncc(-c2cc(OCc3ccccn3)nc3c2CCCC3)c1 [Example 116, Methyl 5-[2-(pyridin-2-ylmethoxy)-5,6,7,8-tetrahydroquinolin-4-yl]pyridine-3-carboxylate]
7.14	OCc1cncc(-c2cc(OCc3ccccn3)nc3c2CCCC3)c1 [Example 122, {5-[2-(Pyridin-2-ylmethoxy)-5,6,7,8-tetrahydroquinolin-4-yl]pyridin-3-yl}methanol hydrochloride]
7.23	COCc1cncc(-c2cc(OCc3ccccn3)nc3c2CCCC3)c1 [Example 123, 4-[5-(Methoxymethyl)pyridin-3-yl]-2-(pyridin-2-ylmethoxy)-5,6,7,8-tetrahydroquinoline hydrochloride]
7.61	Nc1cncc(-c2cc(OCc3ccccn3)nc3c2CCCC3)c1 [Example 124, 5-[2-(Pyridin-2-ylmethoxy)-5,6,7,8-tetrahydroquinolin-4-yl]pyridin-3-amine]
7.00	CN(C)c1cncc(-c2cc(OCc3ccccn3)nc3c2CCCC3)c1 [Example 126, N,N-Dimethyl-5-[2-(pyridin-2-ylmethoxy)-5,6,7,8-tetrahydroquinolin-4-yl]pyridin-3-amine]
7.13	Fc1ccc(COc2cc(-c3cncnc3)c3c(n2)CCCC3)nc1 [Example 145, 2-[(5-Fluoropyridin-2-yl)methoxy]-4-(pyrimidin-5-yl)-5,6,7,8-tetrahydroquinoline]
6.75	Fc1ccnc(COc2cc(-c3cncnc3)c3c(n2)CCCC3)c1 [Example 146, 2-[(4-Fluoropyridin-2-yl)methoxy]-4-(pyrimidin-5-yl)-5,6,7,8-tetrahydroquinoline]
7.71	N#Cc1cccc(COc2cc(-c3cncnc3)c3c(n2)CCCC3)n1 [Example 149, 6-({[4-(Pyrimidin-5-yl)-5,6,7,8-tetrahydroquinolin-2-yl]oxy}methyl)pyridine-2-carbonitrile]
7.20	N#Cc1ccc(COc2cc(-c3cncnc3)c3c(n2)CCCC3)nc1 [Example 150, 6-({[4-(Pyrimidin-5-yl)-5,6,7,8-tetrahydroquinolin-2-yl]oxy}methyl)pyridine-3-carbonitrile]
7.35	Cc1cccc(COc2cc(-c3cncnc3)c3c(n2)CCCC3)n1 [Example 152, 2-[(6-Methylpyridin-2-yl)methoxy]-4-(pyrimidin-5-yl)-5,6,7,8-tetrahydroquinoline]
6.55	FC(F)(F)c1cccc(COc2cc(-c3cncnc3)c3c(n2)CCCC3)n1 [Example 154, 4-(Pyrimidin-5-yl)-2-{[6-(trifluoromethyl)pyridin-2-yl]methoxy}-5,6,7,8-tetrahydroquinoline hydrochloride]
6.82	COCc1cccc(COc2cc(-c3cncnc3)c3c(n2)CCCC3)n1 [Example 160, 2-{[6-(Methoxymethyl)pyridin-2-yl]methoxy}-4-(pyrimidin-5-yl)-5,6,7,8-tetrahydroquinoline hydrochloride]
7.86	Nc1ncc(-c2cc(OCc3ccccn3)nc3c2CCCC3)cn1 [Example 169, 5-[2-(Pyridin-2-ylmethoxy)-5,6,7,8-tetrahydroquinolin-4-yl]pyrimidin-2-amine]
7.59	Cc1ncc(-c2cc(OCc3cccc(F)n3)nc3c2CCCC3)cn1 [Example 185, 2-[(6-Fluoropyridin-2-yl)methoxy]-4-(2-methylpyrimidin-5-yl)-5,6,7,8-tetrahydroquinoline]
